According to US20100209496A1, “LIQUID AND SEMI-SOLID PHARMACEUTICAL FORMULATIONS FOR ORAL ADMINISTRATION OF A SUBSTITUTED AMIDE” (priority 2006, published 2010):
Where two headings read alike, the source gives them in different places. Marks after values point to notes of the source that are not given here.

Tests used:
[1] = Compound I Form I solubility in various liquid vehicles; assay type: physicochemical
[2] = Pharmacokinetics after oral administration of liquid filled capsules; assay type: in vivo, male Beagle dogs; settings: male, Beagle, dog, plasma, 40 mg, 40 mg oral, Mean ± SD; for AUC(0-t): read-out: AUC0-24
[3] = Compound I chemical stability in various liquid vehicles at 40° C.; assay type: physicochemical; settings: 40° C. vs −20° C. control
Text: Stability of 3-[(3aR,4R,5S,7aS)-5-{(1R)-1-[3,5-bis(Trifluoromethyl)phenyl]ethoxy}-4-(4-fluorophenyl)-octahydro-2H-isoindol-2-yl]cyclopent-2-en-1-one, (Compound I) in Various Liquid Vehicles

[4] = liquid filled capsules with Imwitor742/Tween80 (75:25), male Beagle dogs
[5] = liquid filled capsules with Imwitor742:Tween80 (50:50), male Beagle dogs
[6] = liquid filled capsules with pure Imwitor742, male Beagle dogs

Solubility ([1]; Form I, 0.5% Methylcellulose, Room Temp): 0.001 mg/g of formulation
Solubility ([1]; Form I, 1:1 Imwitor:Tween + 1 eq HCl, Room Temp): >57 mg/g of formulation
Solubility ([1]; Form I, Acconon MC-8, 35° C.): <1 mg/g of formulation
Solubility ([1]; Form I, Capmul MCM C-8, 35° C.): 53 mg/g of formulation
Solubility ([1]; Form I, Capmul PG-8, 35° C.): 50 mg/g of formulation
Solubility ([1]; Form I, Capmul PG-12, 35° C.): 25 mg/g of formulation
Solubility ([1]; Form I, Capryol PGMC, 30° C.): 29 mg/g of formulation
Solubility ([1]; Form I, Capryol PGMC, Room Temp): >6 mg/g of formulation
Solubility ([1]; Form I, Captex 200P, 35° C.): 2 mg/g of formulation
Solubility ([1]; Form I, Corn Oil, Room Temp): <0.1 mg/g of formulation
Solubility ([1]; Form I, Cremophor EL, Room Temp): 2 mg/g of formulation
Solubility ([1]; Form I, Ethanol, Room Temp): 58 mg/g of formulation
Solubility ([1]; Form I, Gelucire 44/14, 65° C.): 4 mg/g of formulation
Solubility ([1]; Form I, Glycerin, Room Temp): <0.5 mg/g of formulation
Solubility ([1]; Form I, Imwitor 308, 35° C.): 58 mg/g of formulation
Solubility ([1]; Form I, Imwitor 642, 35° C.): 78 mg/g of formulation
Solubility ([1]; Form I, Imwitor 742, 30° C.): 43 mg/g of formulation
Solubility ([1]; Form I, Imwitor 742, 35° C.): 46 mg/g of formulation
Solubility ([1]; Form I, Imwitor 742, Room Temp): >6 mg/g of formulation
Solubility ([1]; Form I, Imwitor 988, 35° C.): 54 mg/g of formulation
Solubility ([1]; Form I, Labrafil M1944CS, 35° C.): 4 mg/g of formulation
Solubility ([1]; Form I, Labrafil M2125CS, 35° C.): 4 mg/g of formulation
Solubility ([1]; Form I, Labrafil M2125CS, Room Temp): 5 mg/g of formulation
Solubility ([1]; Form I, Labrasol, 35° C.): 11 mg/g of formulation
Solubility ([1]; Form I, Labrasol, Room Temp): 7 mg/g of formulation
Solubility ([1]; Form I, Miglyol 812, Room Temp): 0.4 mg/g of formulation
Solubility ([1]; Form I, Olive Oil, Room Temp): <0.1 mg/g of formulation
Solubility ([1]; Form I, PEG 400:water (92:8) + 1 eq HCl, Room Temp): 24 mg/g of formulation
Solubility ([1]; Form I, PEG 400:water (92:8) + 1 eq NaOH, Room Temp): 1.3 mg/g of formulation
Solubility ([1]; Form I, PEG 400:water (92:8), Room Temp): 1.0 mg/g of formulation
Solubility ([1]; Form I, PEG 400, Room Temp): 2 mg/g of formulation
Solubility ([1]; Form I, Peceol, 35° C.): 19 mg/g of formulation
Solubility ([1]; Form I, Propylene Glycol, 35° C.): 8 mg/g of formulation
Solubility ([1]; Form I, Propylene Glycol, Room Temp): 5 mg/g of formulation
Solubility ([1]; Form I, Soybean Oil, Room Temp): <0.1 mg/g of formulation
Solubility ([1]; Form I, Tween 20, Room Temp): 2 mg/g of formulation
Solubility ([1]; Form I, Tween 80, Room Temp): 1 mg/g of formulation
Solubility ([1]; Form I, Water, Room Temp): <0.0002 mg/g of formulation
Solubility ([1]; Form I, pH 1.3 aqueous, Room Temp): 0.001 mg/g of formulation
Solubility ([1]; Form I, pH 2.2 to 10.1 aqueous, Room Temp): <0.0002 mg/g of formulation
Solubility ([1]; aqueous medium, read-out: aqueous solubility): < 0.2 µg/mL
solubility in Miglyol 812 ([1]; relative to a fully efficacious amount of solubilized compound in a 500 mg capsule): not sufficiently soluble
Cmax [2, 4]: 4.06 ± 0.49 µM
Tmax [2, 4]: 3.33 ± 1.03 h
AUC(0-t) [2, 4]: 65.4 ± 14.7 µM·h
Cmax [2, 5]: 3.04 ± 0.44 µM
Tmax [2, 5]: 3.67 ± 0.82 h
AUC(0-t) [2, 5]: 49 ± 11.5 µM·h
Cmax [2, 6]: 4.22 ± 0.54 µM
Tmax [2, 6]: 4.67 ± 1.63 h
AUC(0-t) [2, 6]: 69 ± 14.2 µM·h
Chemical stability ([3]; 1 mg Compound I/g vehicle, 1:1 Imwitor 742:Tween 80 +0.05% PG + 0.05% BHA, 1 wk): 102.2 % claim
Chemical stability ([3]; 1 mg Compound I/g vehicle, 1:1 Imwitor 742:Tween 80 +0.05% PG + 0.05% BHA, 18 wk): 94.7 % claim
Chemical stability ([3]; 1 mg Compound I/g vehicle, 1:1 Imwitor 742:Tween 80 +0.05% PG + 0.05% BHT, 1 wk): 99.4 % claim
Chemical stability ([3]; 1 mg Compound I/g vehicle, 1:1 Imwitor 742:Tween 80 +0.05% PG + 0.05% BHT, 18 wk): 93.7 % claim
Chemical stability ([3]; 1 mg Compound I/g vehicle, 1:1 Imwitor 742:Tween 80 +0.05% PG + 0.05% NaSO3, 1 wk): 98.5 % claim
Chemical stability ([3]; 1 mg Compound I/g vehicle, 1:1 Imwitor 742:Tween 80 +0.1% Ascorbic Acid Palmitate, 1 wk): 94.2 % claim
Chemical stability ([3]; 1 mg Compound I/g vehicle, 1:1 Imwitor 742:Tween 80 +0.1% Ascorbic Acid Palmitate, 4 wk): 89.4 % claim
Chemical stability ([3]; 1 mg Compound I/g vehicle, 1:1 Imwitor 742:Tween 80 +0.1% BHA, 1 wk): 98.4 % claim
Chemical stability ([3]; 1 mg Compound I/g vehicle, 1:1 Imwitor 742:Tween 80 +0.1% BHA, 4 wk): 96.1 % claim
Chemical stability ([3]; 1 mg Compound I/g vehicle, 1:1 Imwitor 742:Tween 80 +0.1% Propyl Gallate, 1 wk): 99.6 % claim
Chemical stability ([3]; 1 mg Compound I/g vehicle, 1:1 Imwitor 742:Tween 80 +0.1% Propyl Gallate, 4 wk): 97.7 % claim
Chemical stability ([3]; 1 mg Compound I/g vehicle, 1:1 Imwitor 742:Tween 80 +0.1% Propyl Gallate, 18 wk): 93.1 % claim
Chemical stability ([3]; 1 mg Compound I/g vehicle, 1:1 Imwitor 742:Tween 80 +0.1% α-tocopherol, 1 wk): 86.7 % claim
Chemical stability ([3]; 1 mg Compound I/g vehicle, 1:1 Imwitor 742:Tween 80 +0.1% α-tocopherol, 4 wk): 71.1 % claim
Chemical stability ([3]; 1 mg Compound I/g vehicle, 1:1 Imwitor 742:Tween 80, 1 wk): 95.2 % claim
Chemical stability ([3]; 1 mg Compound I/g vehicle, 1:1 Imwitor 742:Tween 80, 4 wk): 90.4 % claim
Chemical stability ([3]; 1 mg Compound I/g vehicle, 1:1 Imwitor 742:Tween 80, 5 wk): 83.8 % claim
Chemical stability ([3]; 1 mg Compound I/g vehicle, 1:1 Imwitor 742:Tween 80, 18 wk): 73.7 % claim
Chemical stability ([3]; 1 mg Compound I/g vehicle, 6:4 Imwitor 742:Propylene Glycol, 1 wk): 100.2 % claim
Chemical stability ([3]; 1 mg Compound I/g vehicle, 6:4 Imwitor 742:Propylene Glycol, 2 wk): 100.6 % claim
Chemical stability ([3]; 1 mg Compound I/g vehicle, 6:4 Imwitor 742:Propylene Glycol, 4 wk): 100.0 % claim
Chemical stability ([3]; 1 mg Compound I/g vehicle, 6:4 Imwitor 742:Propylene Glycol, 8 wk): 100.6 % claim
Chemical stability ([3]; 1 mg Compound I/g vehicle, 9:1 Imwitor 742:Tween 80, 1 wk): 99.6 % claim
Chemical stability ([3]; 1 mg Compound I/g vehicle, 9:1 Imwitor 742:Tween 80, 9.5 wk): 96.4 % claim
Chemical stability ([3]; 1 mg Compound I/g vehicle, Capmul MCM C8, 1 wk): 99.0 % claim
Chemical stability ([3]; 1 mg Compound I/g vehicle, Capmul MCM C8, 32.5 wk): 78.1 % claim
Chemical stability ([3]; 1 mg Compound I/g vehicle, Capmul PG-8, 1 wk): 99.7 % claim
Chemical stability ([3]; 1 mg Compound I/g vehicle, Imwitor 742, 1 wk): 99.8 % claim
Chemical stability ([3]; 1 mg Compound I/g vehicle, Imwitor 742, 5 wk): 98.8 % claim
Chemical stability ([3]; 1 mg Compound I/g vehicle, Imwitor 742, 9.5 wk): 99.8 % claim
Chemical stability ([3]; 1 mg Compound I/g vehicle, Imwitor 742, 32.5 wk): 97.0 % claim
Chemical stability ([3]; at 10 mg/g, Imwitor 742 + 0.75 eq HCl, 1 wk): 100.6 % claim
Chemical stability ([3]; at 10 mg/g, Imwitor 742:Tween 80 +0.75 eq Benzenesulfonic Acid (acid not completely dissolved), 1 wk): 99.1* % claim
Chemical stability ([3]; at 10 mg/g, Imwitor 742:Tween 80 +0.75 eq HCl, 1 wk): 95.2 % claim
Chemical stability ([3]; at 10 mg/g, Imwitor 742:Tween 80 +0.75 eq Phosphoric Acid, 1 wk): 96.4 % claim
Chemical stability ([3]; at 10 mg/g, Imwitor 742:Tween 80 +0.75 eq Sulfuric Acid, 1 wk): 82.9 % claim
Chemical stability ([3]; at 10 mg/g, PEG 400 + 0.75 eq HCl, 1 wk): 60.3 % claim
Chemical stability ([3]; at 10 mg/g, Propylene Glycol + 0.75 eq HCl, 1 wk): 95.2 % claim
Compound: C[C@@H](O[C@H]1CC[C@@H]2CN(C3=CC(=O)CC3)C[C@H]2[C@@H]1c1ccc(F)cc1)c1cc(C(F)(F)F)cc(C(F)(F)F)c1 [Compound I, 3-[(3aR,4R,5S,7aS)-5-{(1R)-1-[3,5-bis(Trifluoromethyl)phenyl]ethoxy}-4-(4-fluorophenyl)-octahydro-2H-isoindol-2-yl]cyclopent-2-en-1-one]
